The results in this text go back to US9321728B2, “Beta-alanine derivatives, pharmaceutically acceptable salts thereof, and pharmaceutical composition comprising same as active ingredient” (KOREA RESEARCH INSTITUTE OF CHEMICAL TECHNOLOGY, priority 2012, dated 2016).

Molecules are shown by their SMILES.

This assay addresses human DGAT1 (Homo sapiens (Human), UniProt O75907). The assay can be described thus: Human DGAT1 enzyme inhibition test (phospholipid FlashPlate, [14C]decanoyl-CoA). In kind it is biochemical. To be noted: for IC50: lysate of Hep3B cells over-expressing human DGAT1 (5 μg/well), didecanoyl glycerol and [14C]decanoyl-CoA substrates; for in vitro inhibition activity with respect to DGAT1: verbal summary of Table 1. The method, then:
The cells were treated with 200 μg/ml G-418(Sigma) once every three days for 4 weeks to over-express the human DGAT1, thereby obtaining a stabilized cell line. The over-expressed cells were put into a homogenization buffer [250 mM sucrose, 10 mM Tris-HCl (pH 7.4), 1 mM EDTA] and lysed by a homogenization apparatus. Then, centrifugation was performed with 600×g for 15 minutes to remove cell residue, and the obtained cells were used for an enzyme inhibition test. Human DGAT-1 and mouse DGAT activity was determined as follows: Assay buffer [20 mM HEPES (pH 7.4), 100 mM MgCl2, 0.04% BSA] containing 500 μM of enzyme substrate (didecanoyl glycerol) and 7.5 μM radiolabeled acyl-CoA substrate ([^14C]decanoyl-CoA) was added to each well of a phospholipid FlashPlate (PerkinElmer Life Sciences). A small aliquot of lysate (5 μg/well) or mouse liver microsome (0.1 mg/well) was added to start the reaction, which was allowed to proceed in a 20° C. bath for 1 hour. and maintained overnight at room temperature. Next day, measurement was performed by Wallac 1450 Microbeta Trilux Liquid Scintillation Counter and Luminometer (PerkinElmer Life Science). […] A calculation method of inhibition degree (%) is as follows.

Chain of human DGAT1 (O75907 whole entry): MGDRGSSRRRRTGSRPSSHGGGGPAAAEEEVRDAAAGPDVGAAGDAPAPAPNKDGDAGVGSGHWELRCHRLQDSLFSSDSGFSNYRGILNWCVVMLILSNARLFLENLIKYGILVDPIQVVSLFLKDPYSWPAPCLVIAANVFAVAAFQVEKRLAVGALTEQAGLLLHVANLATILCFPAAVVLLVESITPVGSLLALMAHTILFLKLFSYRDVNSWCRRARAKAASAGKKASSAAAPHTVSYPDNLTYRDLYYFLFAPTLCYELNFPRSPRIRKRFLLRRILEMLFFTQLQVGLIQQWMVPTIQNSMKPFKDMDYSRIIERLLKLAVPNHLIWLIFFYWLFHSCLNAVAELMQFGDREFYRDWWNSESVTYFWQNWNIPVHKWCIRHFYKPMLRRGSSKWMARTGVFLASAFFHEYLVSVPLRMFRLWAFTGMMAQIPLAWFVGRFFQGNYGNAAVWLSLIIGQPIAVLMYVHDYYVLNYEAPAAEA

The term IC50 denotes the concentration that gives 50% inhibition. A lower IC50 goes with greater potency. Take `O=C(O)C[C@H]1CC[C@H](c2ccc(NC(=O)CCNC(=O)c3nc(-c4ccccc4)oc3C(F)(F)F)cc2)CC1` [Compound 6, trans-[4-(4-{3-[(2-Phenyl-5-trifluoromethyloxazole-4-carbonyl)amino]propionylamino}phenyl)cyclohexyl]acetic acid]: the IC50 was less than 0.05 µM and the “in vitro inhibition activity with respect to DGAT1” value (“in vitro inhibition activity” below) is on record as “good to excellent”.

In the case of `Cc1ccc(-n2cc(C(=O)NCCC(=O)Nc3ccc([C@H]4CC[C@H](CC(=O)O)CC4)cc3)c(C(F)(F)F)n2)cc1` [Compound 47, trans-[4-(4-{3-[(1-p-tolyl-3-trifluoromethyl-1H-pyrazole-4-carbonyl)amino]propionylamino}phenyl)cyclohexyl]acetic acid], the half-inhibitory concentration (IC50) is less than 0.1 µM.

For the compound `NC(=O)C[C@H]1CC[C@H](c2ccc(NC(=O)CCNC(=O)c3nc(-c4ccccc4)oc3C(F)(F)F)cc2)CC1` [Compound 41, trans-2-phenyl-5-trifluoromethyloxazole-4-carboxylic acid{2-[4-(4-carbamoylmethylcyclohexyl)phenylcarbamoyl]ethyl}amide], the IC50 was less than 0.05 µM and the “in vitro inhibition activity” value is “good to excellent”.

Regarding `O=C(O)C[C@H]1CC[C@H](c2ccc(NC(=O)CCNC(=O)c3nc(-c4ccccc4)oc3Cl)cc2)CC1` [Compound 87, trans-[4-(4-{3-[(5-chloro-2-phenyloxazole-4-carbonyl)amino]propionylamino}phenyl)cyclohexyl]acetic acid], the IC50 is less than 0.1 µM.

For the compound `O=C(O)C[C@H]1CC[C@H](c2ccc(NC(=O)CCNC(=O)c3nc(-c4c(Cl)cc(F)cc4Cl)oc3C(F)(F)F)cc2)CC1` [Compound 105], the IC50 is less than 0.05 µM and the “in vitro inhibition activity” value is recorded as “good to excellent”.

On to `O=C(O)C[C@H]1CC[C@H](c2ccc(NC(=O)CCNC(=O)c3nc(-c4ccccc4Br)oc3C(F)(F)F)cc2)CC1` [Compound 65, trans-{4-[4-(3-{[2-(2-Bromophenyl)-5-trifluoromethyloxazole-4-carbonyl]amino}propionylamino)phenyl]cyclohexyl}acetic acid], for which the IC50 was less than 0.05 µM and the “in vitro inhibition activity” value is “good to excellent”.

For the compound `O=C(O)C[C@H]1CC[C@H](c2ccc(NC(=O)CCNC(=O)c3ccc(-c4ccccc4)c(Cl)c3)cc2)CC1` [Compound 94, trans-[4-(4-{3-[(2-chlorobiphenyl-4-carbonyl)amino]propionylamino}phenyl)cyclohexyl]acetic acid], the IC50 is less than 0.05 µM and the “in vitro inhibition activity” value is given as “good to excellent”.

Compound `Cc1ccccc1-c1nc(C(=O)NCCC(=O)Nc2ccc([C@H]3CC[C@H](CC(=O)O)CC3)cc2)c(C(F)(F)F)o1` [Compound 21, trans-[4-(4-{3-[(2-o-tolyl-5-trifluoromethyloxazole-4-carbonyl)amino]propionylamino}phenyl)cyclohexyl]acetic acid] yielded an IC50 of less than 0.1 µM.

Compound `O=C(O)C[C@H]1CC[C@H](c2ccc(NC(=O)CCNC(=O)c3nc(-c4c(F)cccc4Cl)oc3C(F)(F)F)cc2)CC1` [Compound 73, trans-{4-[4-(3-{[2-(2-chloro-6-fluorophenyl)-5-trifluoromethyloxazole-4-carbonyl]amino}propionylamino)phenyl]cyclohexyl}acetic acid] displayed an IC50 of less than 0.1 µM.

In turn, `O=C(O)C[C@H]1CC[C@H](c2ccc(NC(=O)CCNC(=O)c3ccc(-c4ccccc4Cl)cc3)cc2)CC1` [Compound 86, trans-[4-(4-{3-[(2′-chlorobiphenyl-4-carbonyl)amino]propionylamino}phenyl)cyclohexyl]acetic acid] yielded an IC50 of less than 0.1 µM.

As for `O=C(O)C[C@H]1CC[C@H](c2ccc(NC(=O)CCNC(=O)c3nc(-c4ccccc4C(F)(F)F)oc3C(F)(F)F)cc2)CC1` [Compound 66, trans-{4-[4-(3-{[5-trifluoromethyl-2-(2-trifluoromethylphenyl)oxazole-4-carbonyl]amino}propionylamino)phenyl]cyclohexyl}acetic acid], the 50% inhibitory concentration (IC50) is less than 0.05 µM and the “in vitro inhibition activity” value is listed as “good to excellent”.
